Source: US7632783B2 (priority 2004, dated 2009)

Tests used:
[1] = test system: rice blast (Pyricularia oryzae); format: in vivo; details: potted rice (variety Karakaze), spraying liquid 300 ppm after spore inoculation, observed 7 days after inoculation, levels 0 to 3
[2] = test system: gray mold (Botrytis cinerea); assay: Tomato gray mold control test (preventive effects); format: in vivo; details: potted tomato (giant Fukuju variety), spraying liquid 300 ppm before spore inoculation, investigated 2 days after inoculation, levels 0 to 3
Protocol: Bulk drug was dissolved in a mixed solution of dimethylsulfoxide and methanol (volume ratio: 7/3), and spraying liquids containing 300 ppm of compounds of the present invention were uniformly sprayed onto potted test plants (tomato: giant Fukuju variety) in the second to third leaf stage. […], a suspension of pathogen spores were inoculated by spraying onto the pots in an inoculation room at a room temperature of 20 to 23° C. to promote the onset of disease. The degree of disease onset was investigated 2 days after inoculation. The test was carried out in duplicate.
Furthermore, the degree of disease onset was evaluated to one of four levels from 0 to 3 according to the criteria below by macroscopically observing the degree of disease onset of the test plants.
1: Degree of disease onset less than 40% of the untreated area
2: Degree of disease onset 40% to less than 80% of the untreated area
3: Degree of disease onset 80% or more

Row | Compound | degree of disease onset [1] | degree of disease onset [2]
1 | CC1(C)Cc2c(F)cccc2C2(c3cnc4ccccc4c3)ON12 (centres unmarked) [Example 197, 5-fluoro-3,3-dimethyl-8b-quinolin-3-yl-4,8b-dihydro-3H-oxazileno[3,2-a]isoquinoline] | 0 | 0
2 | CC1(CCl)Cc2ccccc2C(c2cnc3ccccc3c2)=N1 (centres unmarked) [Example 66, 3-(3-chloromethyl-3-methyl-3,4-dihydroisoquinolin-1-yl)quinoline] | 0 | 0
3 | CC1(C)Cc2c(C#N)cccc2C(c2cnc3ccccc3c2)=N1 [Example 51, 3-(5-cyano-3,3-dimethyl-3,4-dihydroisoquinolin-1-yl)quinoline] | 0 | 0
4 | CC1(C)N=C(c2cnc3ccccc3c2)c2ccccc2C1(F)F [Example 177, 3-(4,4-difluoro-3,3-dimethyl-3,4-dihydroisoquinolin-1-yl)quinoline] | 0 | 0
5 | CC1(C)Cc2c(F)cccc2C(c2cnc3ccccc3c2)=N1 [Example 2, 3-(5-fluoro-3,3-dimethyl-3,4-dihydroisoquinolin-1-yl)quinoline] | 0 | 0
6 | CCCC1(C)Cc2c(F)cccc2C(c2cnc3ccccc3c2)=N1 (centres unmarked) [Example 58, 3-(5-fluoro-3-methyl-3-propyl-3,4-dihydroisoquinolin-1-yl)quinoline] | 0 | 0
7 | CC1(C)N=C(c2cnc3ccccc3c2)c2cccc(F)c2C1F (centres unmarked) [Example 174, 3-(4,5-difluoro-3,3-dimethyl-3,4-dihydroisoquinolin-1-yl)quinoline] | 0 | 0
8 | CC1(C)c2ccccc2C(c2cnc3ccccc3c2)=[N+]([O-])C12CCCCC2 [Example 217] | 0 | 0
9 | CC1(C)Cc2ccc(Cl)cc2C(c2cnc3ccccc3c2)=N1 [Example 21, 3-(7-chloro-3,3-dimethyl-3,4-dihydroisoquinolin-1-yl)quinoline] | 0 | 0
10 | CCC1(C)Cc2c(F)cccc2C(c2cnc3ccccc3c2)=N1 (centres unmarked) [Example 56, 3-(3-ethyl-5-fluoro-3-methyl-3,4-dihydroisoquinolin-1-yl)quinoline] | 0 | 0
11 | CC1(CC(F)(F)F)Cc2ccccc2C(c2cnc3ccccc3c2)=N1 (centres unmarked) [Example 69, 3-(3-trifluoroethyl-3-methyl-3,4-dihydroisoquinolin-1-yl)quinoline] | 0 | 0
12 | CC1(C)Cc2c(Cl)cccc2C(c2cnc3ccccc3c2)=N1 [Example 18, 3-(5-chloro-3,3-dimethyl-3,4-dihydroisoquinolin-1-yl)quinoline] | 0 | 0
13 | CC1(C)c2ccccc2C2(c3cnc4ccccc4c3)ON2C1(C)C (centres unmarked) [Example 196, 3,3,4,4-tetramethyl-8b-quinolin-3-yl-4,8b-dihydro-3H-oxazileno[3,2-a]isoquinoline] | 0 | 0
14 | Cc1cccc2cc(C3=NC(C)(C)Cc4c(F)cccc43)cnc12 [Example 14, 3-(5-fluoro-3,3-dimethyl-3,4-dihydroisoquinolin-1-yl)-8-methylquinoline] | 0 | 0
15 | CC1(c2ccc(F)cc2)Cc2ccccc2C(c2cnc3ccccc3c2)=N1 (centres unmarked) [Example 72, 3-[3-(4-fluorophenyl)-3-methyl-3,4-dihydroisoquinolin-1-yl]quinoline] | 0 | 0
16 | CC1(C)c2ccccc2C2(c3cnc4ccccc4c3)ON2C12CCCC2 (centres unmarked) [Example 202, 4′,4′-dimethyl-8b′-quinolin-3-yl-4′,8b′-dihydrospiro[cyclopentane-1,3′-oxazileno[3,2-a]isoquinoline]] | 0 | 0
17 | CC1(C)Cc2c(ccc(F)c2F)C(c2cnc3ccccc3c2)=N1 [Example 52, 3-(5,6-difluoro-3,3-dimethyl-3,4-dihydroisoquinolin-1-yl)quinoline] | 0 | 0
18 | CC1(C)N=C(c2cnc3ccc(F)cc3c2)c2cccc(F)c2C1(C)C [Example 163, 3-(5-fluoro-3,3,4,4-tetramethyl-3,4-dihydroisoquinolin-1-yl)-6-fluoroquinoline] | 0 | 0
19 | 3-(5-fluoro-3,3-dimethyl-3,4-dihydroisoquinolin-1-yl)quinoline salicylate [Example 108] | 0 | 0
20 | CC1(C)N=C(c2cnc3ccccc3c2)c2cccc(F)c2C1(C)C.O=[N+]([O-])O [Example 158, 3-(5-fluoro-3,3,4,4-tetramethyl-3,4-dihydroisoquinolin-1-yl)quinoline nitrate] | 0 | 0
21 | CC1(C)c2cc(F)ccc2C(c2cnc3ccccc3c2)=[N+]([O-])C1(C)C [Example 209, 3-(6-fluoro-3,3,4,4-tetramethyl-2-oxide-3,4-dihydroisoquinolin-1-yl)quinoline] | 0 | 0
22 | CC1(C)c2c(F)cccc2C2(c3cnc4ccccc4c3)ON2C1(C)C (centres unmarked) [Example 193, 5-fluoro-3,3,4,4-tetramethyl-8b-quinolin-3-yl-4,8b-dihydro-3H-oxazileno[3,2-a]isoquinoline] | 0 | 0
23 | CC1(C)c2c(F)cccc2C(c2cnc3ccccc3c2)=[N+]([O-])C1(C)C [Example 204, 3-(5-fluoro-3,3,4,4-tetramethyl-2-oxide-3,4-dihydroisoquinolin-1-yl)quinoline] | 0 | 0
24 | CC1(C)N=C(c2cnc3ccccc3c2)c2cccc(F)c2C1(C)C.Cl [Example 156, 3-(5-fluoro-3,3,4,4-tetramethyl-3,4-dihydroisoquinolin-1-yl)quinoline hydrochloride] | 0 | 0
25 | CC1(C)Cc2c(F)cccc2C(c2cnc3ccccc3c2)=N1.Cl [Example 103, 3-(5-fluoro-3,3-dimethyl-3,4-dihydroisoquinolin-1-yl)quinoline hydrochloride] | 0 | 0
26 | Cc1cccc2cc(C3=NC(C)(C)C(C)(C)c4c(F)cccc43)cnc12 [Example 165, 3-(5-fluoro-3,3,4,4-tetramethyl-3,4-dihydroisoquinolin-1-yl)-8-methylquinoline] | 0 | 0
27 | C#Cc1cccc2c1CC(C)(C)N=C2c1cnc2ccccc2c1 [Example 30, 3-(5-ethynyl-3,3-dimethyl-3,4-dihydroisoquinolin-1-yl)quinoline] | 0 | 0
28 | CC1(C)c2cc(Cl)ccc2C(c2cnc3ccccc3c2)=[N+]([O-])C1(C)C [Example 211, 3-(6-chloro-3,3,4,4-tetramethyl-2-oxide-3,4-dihydroisoquinolin-1-yl)quinoline] | 0 | 0
